From patent publication US20220267300A1 (NodThera Limited, priority 2019, published 2022)

The compounds below were run on IL-1β release upon NLRP3 activation in peripheral blood mononuclear cells (PBMC) (assay: PBMC IC50 determination assay (inhibition of IL-1β release)). Conditions: Homo sapiens; IL-1β release from LPS-primed PBMC stimulated with ATP (5 mM) or nigericin (10 μM); ELISA or HTRF; corresponding sodium salts evaluated.
Format: cell-based
Description: The compounds of the present disclosure were tested for their inhibitory activity against IL-1β release upon NLRP3 activation in peripheral blood mononuclear cells (PBMC).
Protocol A. PBMC were isolated from buffy coats by density gradient centrifugation on Histopaque-1077 (Sigma, cat no. 10771). Isolated cells were seeded into the wells of a 96-well plate and incubated for 3 h with lipopolysaccharide (LPS). Following medium exchange, the compounds of the present disclosure were added (a single compound per well) and the cells were incubated for 30 min. Next, the cells were stimulated either with ATP (5 mM) or nigericin (10 μM) for 1 h and the cell culture media from the wells were collected for further analysis.
The release of IL-1β into the media was determined by a quantitative detection of IL-1β in the media using an IL-1β enzyme-linked immunosorbent assay (ELISA) Ready-SET-Go!, eBioscience cat. No. 88-7261-88. Briefly, in a first step, high affinity binding plates (Corning, Costar 9018 or NUNC Maxisorp Cat No. 44-2404) were coated overnight at 4° C. with specific capture antibody included in the kit (anti-human IL-1β ref. 14-7018-68). Subsequently, plates were blocked with blocking buffer for 1 h at room temperature (rt) and after washing with a buffer (PBS with 0.05% Tween-20) incubated with protein standard and culture media. After 2 h of incubation at rt, plates were washed and incubated with biotinylated detection antibody included in the kit (anti-human IL-1β Biotin ref. 33-7110-68) for 1 h at rt. Plates were washed and incubated with HRP-streptavidin for 30 min at rt and washed again. The signal was developed after addition of 3,3′,5,5′-tetramethylbenzidine-peroxidase (TMB) until colour appeared and the reaction was stopped by 2 M H2SO4. A microplate spectrophotometer (BioTek) was used to detect signals with 450 nm. The detection range of IL-1β ELISA was 2-150 ng/ml.
Protocol B. PBMC were isolated from buffy coats by density gradient centrifugation on Histopaque-1077 (Sigma, cat no. 10771). Isolated cells were seeded into the wells (280,000 cells/well) of a 96-well plate and incubated for 3 h with lipopolysaccharide (LPS, 1 μg/ml diluted 1000× from a 1 mg/ml stock solution). The compounds of the present disclosure were added (a single compound per well) and the cells were incubated for 30 min. Next, the cells were stimulated with ATP (5 mM final concentration diluted 20× from a 100 mM stock solution) for 1 h and the cell culture media from the wells were collected for further analysis.
The release of IL-1β into the media was determined by quantitative detection of IL-1β in the media using HTRF®, CisBio cat. No. 62HIL1BPEH. Briefly, cell culture supernatant were dispensed directly into the assay plate containing antibodies labelled with the HTRF® donor and acceptor. A microplate spectrophotometer (BMG) was used to detect signals at 655 nm and 620 nm. The detection range of IL-1β HTRF® was 39-6500 pg/ml.

SMILES	IC50 [µM]
CC(C)c1cc(F)cc(C(C)C)c1CC(=O)NS(=O)(=O)N(c1cnn(C)c1)C1CCN(C)CC1 [Example 31]	≥ 50
Cn1cc(N(CCCN)S(=O)(=O)NC(=O)Cc2c3c(cc4c2CCC4)CCC3)cn1 [Example 34]	≥ 50
CC(C)c1cc(CC(=O)NS(=O)(=O)N(C[C@H]2C[C@@H](F)CN2C)c2cnn(C)c2)cc(C(C)C)c1 [Example 39]	≥ 50
CC(C)c1cc(CC(=O)NS(=O)(=O)N(c2cnn(C)c2)C2CCCN(C)C2)cc(C(C)C)c1 (centres unmarked) [Example 3]	10 to 50
CC(C)c1cc(Cl)cc(C(C)C)c1CC(=O)NS(=O)(=O)N(C[C@@H]1CCCN1C)c1cnn(C)c1 [Example 40]	≥ 50
Cc1ccc(C(C)C)cc1CC(=O)NS(=O)(=O)N(c1cnn(C)c1)C1CCCN(C)C1 (centres unmarked) [Example 48]	≥ 50
CC(C)c1cc(CC(=O)NS(=O)(=O)N(c2cnn(C)c2)C2CCCN(C)C2)c(C(C)C)s1 (centres unmarked) [Example 14, 2-[2,5-Bis(propan-2-yl)thiophen-3-yl]-N-[(1-methyl-1H-pyrazol-4-yl)(1-methylpiperidin-3-yl)sulfamoyl]acetamide]	< 1
CN1CCC[C@@H]1CN(c1cnn(C)c1)S(=O)(=O)NC(=O)Cc1cc(C(C)(C)C)cc(C(C)(C)C)c1 [Example 54]	10 to 50
CN1CCC[C@H]1CN(c1cnn(C)c1)S(=O)(=O)NC(=O)Cc1cc(Cl)cc(C(C)(C)C)c1 (stereo in doubt) [Example 56]	≥ 50
CC(C)c1cccc(CC(=O)NS(=O)(=O)N(c2cnn(C)c2)C2CCCN(C)C2)c1 (centres unmarked) [Example 53]	≥ 50
CC(=O)N(C)CCN(c1cnn(C)c1)S(=O)(=O)NC(=O)Cc1c2c(cc3c1CCC3)CCC2 [Example 26, 2-(1,2,3,5,6,7-Hexahydro-s-indacen-4-yl)-N-[(1-methyl-1H-pyrazol-4-yl)[2-(N-methylacetamido)ethyl]sulfamoyl]acetamide]	3 to 10
CC(C)c1cc(CC(=O)NS(=O)(=O)N(C[C@@H]2CCCN2C)c2cnn(C)c2)cc(C(C)C)c1F [Example 9, 2-[4-Fluoro-3,5-bis(propan-2-yl)phenyl]-N-[(1-methyl-1H-pyrazol-4-yl)({[(2S)-1-methylpyrrolidin-2-yl]methyl})sulfamoyl]acetamide]	10 to 50
Cc1cc(C)cc(CC(=O)NS(=O)(=O)N(c2cnn(C)c2)C2CCCN(C)C2)c1 (centres unmarked) [Example 32]	≥ 50
Cn1cc(N(C2CCCNC2)S(=O)(=O)NC(=O)Cc2c3c(cc4c2CCC4)CCC3)cn1 (centres unmarked) [Example 20, 2-(1,2,3,5,6,7-Hexahydro-s-indacen-4-yl)-N-[(1-methyl-1H-pyrazol-4-yl)(piperidin-3-yl)sulfamoyl]acetamide]	1 to 3
CN1CCCC(N(c2cnn(C)c2)S(=O)(=O)NC(=O)Cc2cc(Cl)cc(C(F)(F)F)c2)C1 (centres unmarked) [Example 4, 2-[3-Chloro-5-(trifluoromethyl)phenyl]-N-[(1-methyl-1H-pyrazol-4-yl)(1-methylpiperidin-3-yl)sulfamoyl]acetamide]	10 to 50
CC(C)c1cc(CC(=O)NS(=O)(=O)N(C[C@@H]2CCCN2C)c2cnn(C)c2)cc(C(C)C)c1 [Example 5, 2-[3,5-Bis(propan-2-yl)phenyl]-N-[(1-methyl-1H-pyrazol-4-yl)({[(2S)-1-methylpyrrolidin-2-yl]methyl})sulfamoyl]acetamide]	< 1
CC(C)c1ccc(C(C)C)c(CC(=O)NS(=O)(=O)N(C[C@@H]2CCCN2C)c2cnn(C)c2)c1 [Example 50]	≥ 50
